Experimental data taken from patent US8871774B2, “Inhibitors of influenza viruses replication” (priority 2010, dated 2014).
Where two headings read alike, the source gives them in different places.

How the values were obtained:
[1] = system: influenza A virus (A/PR/8/34); assay: cytopathic effect (CPE) assay, MDCK cell protection by ATP detection; assay type: cell-based; details: Influenza A virus, mean IC50, MDCK cells, A/PR/8/34, 72 hours, 50% cell protection
[2] = system: Influenza virus, strain A/PR/8/34; assay: microbe, parasite or virus in culture; assay type: cell-based
[3] = Table 1, read-out: Flu, MDCK IC50
[4] = unidentified influenza virus, PR/8, read-out: bDNA EC50 (uM)
[5] = Table 2, read-out: Flu MDCK IC50

Structure (SMILES)	IC50 [1, 3] [µM]	EC50 [2, 4] [µM]	IC50 [1, 5] [µM]	EC50 ([2]; read-out: bDNA EC50, Table 2, mean EC50, viral RNA level 50% of control wells) [µM]
COC(=O)[C@H]1C2CCC(CC2)[C@@H]1Nc1nc(-c2n[nH]c3ncc(Cl)cc23)ncc1F (racemic) [Compound I-2, (+/−)-trans-(2,3)-methyl 3-((2-(5-chloro-1H-pyrazolo[3,4-b]pyridin-3-yl)-5-fluoropyrimidin-4-yl)amino)bicyclo[2.2.2]octane-2-carboxylate]	< 3.3	< 3.3	–	–
COC(=O)[C@H]1C2CCCC(CC2)[C@@H]1Nc1nc(-c2n[nH]c3ncc(F)cc23)ncc1F (mixture of isomers) [Compound I-36, (+/−)-methyl 7-(5-fluoro-2-(5-fluoro-1H-pyrazolo[3,4-b]pyridin-3-yl)pyrimidin-4-ylamino)bicyclo[3.2.2]nonane-6-carboxylate]	< 3.3	< 3.3	–	–
O=C(O)[C@H]1C2CCC(CC2)[C@@H]1Nc1nc(-c2n[nH]c3ncc(F)cc23)ncc1F [Compound I-44]	–	–	< 3.3	< 3.3
COC(=O)[C@H]1C2CCC(CC2)C1Nc1ccnc(-c2n[nH]c3ncc(F)cc23)n1 (mixture of isomers) [Compound I-42, (+/−)-trans-methyl-3-((2-(5-fluoro-1H-pyrazolo[3,4-b]pyridin-3-yl)pyrimidin-4-yl)amino)bicyclo[2.2.2]octane-2-carboxylate]	–	< 3.3	< 3.3	–
O=C(O)[C@H]1C2CCCC(CC2)[C@@H]1Nc1nc(-c2n[nH]c3ncc(F)cc23)ncc1F (mixture of isomers) [Compound I-37, (+/−)-7-(5-fluoro-2-(5-fluoro-1H-pyrazolo[3,4-b]pyridin-3-yl)pyrimidin-4-ylamino)bicyclo[3.2.2]nonane-6-carboxylic acid]	< 3.3	< 3.3	–	–
O=C(N[C@@H]1CCC[C@H](Nc2nc(-c3n[nH]c4ncc(F)cc34)ncc2F)C1)c1ccsc1 [Compound I-41, N-((1R,3S)-3-((5-fluoro-2-(5-fluoro-1H-pyrazolo[3,4-b]pyridin-3-yl)pyrimidin-4-yl)amino)cyclohexyl)thiophene-3-carboxamide]	–	< 3.3	< 3.3	–
O=C(N[C@@H]1CCC[C@H](Nc2nc(-c3n[nH]c4ncc(F)cc34)ncc2F)C1)N1CCOCC1 [Compound I-21, N-((1R,3S)-3-((5-fluoro-2-(5-fluoro-1H-pyrazolo[3,4-b]pyridin-3-yl)pyrimidin-4-yl)amino)cyclohexyl)morpholine-4-carboxamide]	< 3.3	< 3.3	–	–
O=C(N[C@@H]1CCC[C@H](Nc2nc(-c3n[nH]c4ncc(Cl)cc34)ncc2F)C1)N1CCC[C@H]1CO [Compound I-4, (S)—N-((1R,3S)-3-((2-(5-chloro-1H-pyrazolo[3,4-b]pyridin-3-yl)-5-fluoropyrimidin-4-yl)amino)cyclohexyl)-2-(hydroxymethyl)pyrrolidine-1-carboxamide]	< 3.3	< 3.3	–	–
O=C(N[C@@H]1CCC[C@H](Nc2nc(-c3n[nH]c4ncccc34)ncc2F)C1)N1CCOCC1 [Compound I-7]	< 3.3	< 3.3	–	–
O=C(O)[C@@H]1C2CCC(CC2)[C@H]1Nc1nc(-c2n[nH]c3ncc(F)cc23)ncc1Cl [Compound I-35, (2R,3R)-3-((5-chloro-2-(5-fluoro-1H-pyrazolo[3,4-b]pyridin-3-yl)pyrimidin-4-yl)amino)bicyclo[2.2.2]octane-2-carboxylic acid]	< 3.3	< 3.3	–	–
O=C(O)[C@H]1CCCC2(CCCC2)[C@H]1Nc1nc(-c2n[nH]c3ncc(F)cc23)ncc1F [Compound I-39, (6S,7S)-6-((5-fluoro-2-(5-fluoro-1H-pyrazolo[3,4-b]pyridin-3-yl)pyrimidin-4-yl)amino)spiro[4.5]decane-7-carboxylic acid]	–	< 3.3	< 3.3	–
O=C(O)[C@H]1C2CCC(CC2)[C@@H]1Nc1nc(-c2n[nH]c3ncc(Cl)cc23)ncc1F (racemic) [Compound I-6, (+/−) trans-(2S,3S)-3-((2-(5-chloro-1H-pyrazolo[3,4-b]pyridin-3-yl)-5-fluoropyrimidin-4-yl)amino)bicyclo[2.2.2]octane-2-carboxylic acid]	< 3.3	< 3.3	–	–
O=C(O)[C@H]1C2CCC(CC2)[C@@H]1Nc1nc(-c2n[nH]c3ncc(F)cc23)ncc1Cl [Compound I-34, (2S,3S)-3-((5-chloro-2-(5-fluoro-1H-pyrazolo[3,4-b]pyridin-3-yl)pyrimidin-4-yl)amino)bicyclo[2.2.2]octane-2-carboxylic acid]	< 3.3	< 3.3	–	–
Cn1cnc(C(=O)N[C@@H]2CCC[C@H](Nc3nc(-c4n[nH]c5ncccc45)ncc3F)C2)c1 [Compound I-24, N-((1R,3S)-3-((5-fluoro-2-(1H-pyrazolo[3,4-b]pyridin-3-yl)pyrimidin-4-yl)amino)cyclohexyl)-1-methyl-1H-imidazole-4-carboxamide]	< 3.3	< 3.3	–	–
O=C(N[C@@H]1CCC[C@H](Nc2nc(-c3n[nH]c4ncccc34)ncc2F)C1)N1CCC(F)CC1 [Compound I-20]	< 3.3	< 3.3	–	–
O=C(N[C@@H]1CCC[C@H](Nc2nc(-c3n[nH]c4ncccc34)ncc2F)C1)N1CC[C@H](F)C1 [Compound I-17, (S)-3-fluoro-N-((1R,3S)-3-((5-fluoro-2-(1H-pyrazolo[3,4-b]pyridin-3-yl)pyrimidin-4-yl)amino)cyclohexyl)pyrrolidine-1-carboxamide]	< 3.3	< 3.3	–	–
O=C(N[C@@H]1CCC[C@H](Nc2nc(-c3n[nH]c4ncc(Cl)cc34)ncc2F)C1)N1CCOCC1 [Compound I-1, N-((1R,3S)-3-((2-(5-chloro-1H-pyrazolo[3,4-b]pyridin-3-yl)-5-fluoropyrimidin-4-yl)amino)cyclohexyl)morpholine-4-carboxamide]	< 3.3	< 3.3	–	–
O=C(N[C@@H]1CCC[C@H](Nc2nc(-c3n[nH]c4ncccc34)ncc2F)C1)N1CCCC1 [Compound I-12, N-((1R,3S)-3-((5-fluoro-2-(1H-pyrazolo[3,4-b]pyridin-3-yl)pyrimidin-4-yl)amino)cyclohexyl)pyrrolidine-1-carboxamide]	< 3.3	< 3.3	–	–
C[C@@H]1CCCN1C(=O)N[C@@H]1CCC[C@H](Nc2nc(-c3n[nH]c4ncccc34)ncc2F)C1 [Compound I-18, (R)—N-((1R,3S)-3-((5-fluoro-2-(1H-pyrazolo[3,4-b]pyridin-3-yl)pyrimidin-4-yl)amino)cyclohexyl)-2-methylpyrrolidine-1-carboxamide]	< 3.3	< 3.3	–	–
COC(=O)[C@H]1C2CCC(CC2)[C@@H]1Nc1nc(-c2n[nH]c3ncc(F)cc23)ncc1F (racemic) [Compound I-28, (+/−) trans-methyl 3-(5-fluoro-2-(5-fluoro-1H-pyrazolo[3,4-b]pyridin-3-yl)pyrimidin-4-ylamino)bicyclo[2.2.2]octane-2-carboxylate]	< 3.3	< 3.3	–	–
O=C(N[C@@H]1CCC[C@H](Nc2nc(-c3n[nH]c4ncc(F)cc34)ncc2F)C1)c1csc(Cl)c1 [Compound I-47, 5-chloro-N-((1R,3S)-3-((5-fluoro-2-(5-fluoro-1H-pyrazolo[3,4-b]pyridin-3-yl)pyrimidin-4-yl)amino)cyclohexyl)thiophene-3-carboxamide]	–	< 3.3	< 3.3	–
O=C(O)[C@@H]1CCCC2(CCCC2)[C@@H]1Nc1nc(-c2n[nH]c3ncc(F)cc23)ncc1F [Compound I-38]	< 3.3	< 3.3	–	–
